{"source": "patent US10154992B2", "about": "“Compounds and methods for treating HIV infection” (THE REGENTS OF THE UNIVERSITY OF CALIFORNIA, priority 2016, dated 2018)", "key": {"[1]": {"experiment": "MTT cell viability run in parallel with the Tat-hybrid assay", "type": "cell-based", "conditions": "human, Tat-hybrid reporter cell lines (HeLa); Table 6; second 'EC50' entry of the cell, values D/E", "summary_of_the_method": "(§1)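 HeLa reporter lines (Tat-hybrid) treated with compound for 48 hours, then luciferase luminescence measured. Cytotoxicity assessed in parallel by MTT viability; thienopyridines and diaminoacridine served as controls.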"}, "[2]": {"test_system": "Tat-hybrid reporter cell lines (HeLa)", "experiment": "MTT cell viability run in parallel with the Tat-hybrid assay", "type": "cell-based", "conditions": "Table 6; at 50,000 nM", "summary_of_the_method": "as §1"}, "[3]": {"test_system": "HIV-1 provirus in U1 cells", "experiment": "U1 activation (latency) assay, p24 ELISA", "type": "cell-based", "description": "(§2) U1 activation assay. U1 cells obtained from the AIDS Research and Reference Reagent Program were maintained under standard culture conditions in RPMI 1640 supplemented with 10% fetal bovine serum (heat inactivated), 2 mM L-glutamine, 100U/mL penicillin and 100 μg/mL streptomycin. U1 cells contain an integrated copy of a phorbol ester inducible HIV-1 provirus and addition of phytohemagglutinin (PHA) to the cell culture was used to induce virus production. On the day of the assay, the U1 cells were activated with PHA and 250,000 cells were plated in 96-well plates. Test compounds were diluted in media and applied to the cells at final concentrations from 1 to 10,000 nM. Cultures were incubated for 3 days and supernatants harvested. Cell-free virus production was measured by p24 ELISA on culture supernatant. Compound toxicity was determined by MTT cell-viability assay in parallel assays."}, "U1 cells": {"test_system": "U1 cells", "experiment": "MTT cell viability in parallel with the U1 assay", "type": "cell-based", "conditions": "Table 6; read-out: U1 TC50", "description": "as §2"}, "Rev-RRE IIB interaction [4]": {"target": "T1, Rev-RRE IIB interaction (Human immunodeficiency virus type 1 group M subtype B, UniProt P04608+P04618)", "T1 construct": "with a fusion to HIV Rev (residues 3-70) was generated; expressed in transfected cells", "T1 sequence (P04608 whole entry, looked up, the tested form may be a part)": "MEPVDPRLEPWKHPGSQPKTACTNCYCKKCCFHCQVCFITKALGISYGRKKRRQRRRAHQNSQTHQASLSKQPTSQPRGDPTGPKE", "T1 sequence (P04618 whole entry, looked up, the tested form may be a part)": "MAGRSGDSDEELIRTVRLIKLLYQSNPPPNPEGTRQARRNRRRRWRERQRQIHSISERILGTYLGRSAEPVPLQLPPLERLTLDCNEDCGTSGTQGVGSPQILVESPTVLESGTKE", "type": "cell-based, HIV", "description": "A library of approximately 4500 carboxamide-containing compounds was assembled and tested in the reporter cell line at 30 μM. Reporter cells were plated in a white 96-well plate and compounds were added to the cells using a Biomek FX robotic liquid handler (Beckman Coulter). The cells were incubated with the compound for 48 hours then assayed for luciferase activity (Promega Bright Glo). The cytotoxicity of each compound was determined in parallel via MTT-based cell viability assays.\n(§3) Cells were counted and plated into white 384-well or 96-well cell-culture treated assay plates and compounds were added. After 48 hours, the cells were prepared for luminescence assays that were performed on a plate reader (Tecan Evolution or MD Analyst). The cytotoxicity of each compound was determined in parallel via MTT-based cell viability assays.\nas §3, with “Tat hybrid reporter assay. […] Previously characterized thienopyridines and diaminoacridine were used as controls. Cells” for “Cells”, “384-well” for “384-well or 96-well”, “lumincescence” for “luminescence”\nThe RRE IIB-Rev screening cell line was plated in 384-well assay plates and compounds were added to the cells to a final concentration of 30 μM. Cells were prepared and assayed for luciferase activity. […] In parallel, MTT cell viability assays were performed to assess the toxicity of compounds and minimize the level of false positives."}, "Rev-RRE IIB interaction [5]": {"test_system": "Rev-RRE IIB interaction", "conditions": "in vitro", "quoted_text": "To further validate the hits, we used an electrophoretic mobility shift assay (EMSA) to evaluate which of the three hit scaffolds were capable of disrupting the Rev-RRE IIB interaction in vitro."}, "PBMC": {"test_system": "PBMC", "experiment": "MTT toxicity in the PBMC replication assay", "type": "cell-based, Human", "conditions": "PBMC experiment; read-out: TC50 by MTT assay", "excerpt": "Results of this experiment are shown in FIG. 9 where the replication and toxicity curves for isolate 93BR021 (CCR5-tropic, group M, subtype B) are shown."}, "[6]": {"test_system": "Vpu-dependent degradation of Rev", "experiment": "Vpu-dependent degradation of Rev, western blot in transfected 293T cells", "type": "cell-based, HIV", "conditions": "co-transfection with 100 ng Vpu expression plasmid", "description": "Vpu is a regulator of Rev. In this experiment, Rev was expressed in the presence or absence of Vpu and levels of both proteins were measured by western blot. Flag tagged Rev and either Flag tagged Vpu or Flag tagged GFP were transfected to 293T cells.\nNext we tested the Vpu-dependent degradation of Rev with the proteasome inhibitor MG132."}, "HIV-1 isolate NL4-3": {"test_system": "HIV-1 isolate NL4-3", "experiment": "Virus spreading / replication assay in Jurkat cells, p24 ELISA", "type": "cell-based", "conditions": "Human immunodeficiency virus 1, NL43, Jurkat; Table 2; NL4-3; read-out: Jurkat HIV-1 replication assay", "description": "Virus spreading assay. Jurkat (E6-1) cells (NIH AIDS Reagent Program) were cultured in RPMI media supplemented with 25 mM HEPES pH 7.4, 10% heat-inactivated fetal calf serum (Hyclone, Waltham Mass.), and 1% penicillin/streptomycin. 2.5×10^5 Jurkat cells were inoculated with 250 pg p24 in 250 μl media in a 96-well flat bottom polystyrene cell culture microplate. Input virus was removed after 18 hours via washing cells phosphate-buffered saline (PBS). Cells were resuspended in 250 μl of media containing compounds at the described concentrations. Cells were incubated at 37° C., 5% CO2 and supernatant samples were removed every 48 hours and replaced with fresh media containing the compounds. Viral replication was quantified using ELISA to quantify p24 viral capsid protein in the culture supernatant. Mouse monoclonal and rabbit polyclonal α-p24 antibodies used in the ELISA were obtained from the NIH AIDS Reagent Program. Toxicity was monitored using the MTT cell viability assay (Mosmann, T. (1983). J Immunol Methods 65, 55-63)."}, "[7]": {"test_system": "HIV RRE (Rev-dependent) reporter", "experiment": "Rev reporter assay in 293T cells, p24 ELISA", "type": "cell-based", "conditions": "Human immunodeficiency virus 1, HEK-293T, Table 2", "description": "Rev reporter assay. In the Rev reporter assay, 293T cells were transfected with an HIV RRE (Rev-dependent) reporter plus a pSV2 Rev expression plasmid (Hope, T. J., et al. (1990) Proc. Natl. Acad. Sci. USA 87, 7787-7791). Compounds were incubated with the cells for 48 hours and reporter activity was assessed by p24 ELISA. Leptomycin B, an inhibitor of the Crm1 pathway that inhibits Rev-dependent export, was included as a control. The cytotoxicity of each compound was determined in parallel via MTT-based cell viability assays."}, "[8]": {"experiment": "Aqueous solubility pH 7.4", "type": "physicochemical", "conditions": "aqueous solution, pH 7.4, pH 7.4, aqueous buffer", "excerpt": "(§4) We next evaluated analogs 2b, 2f, 4a, and 4e in a panel of standard in vitro ADME assays to assess drug-like properties and the potential for efficacy in animals."}, "Caco-2 permeability": {"experiment": "Caco-2 permeability", "type": "in vitro ADME", "conditions": "human", "excerpt": "as §4"}, "[9]": {"experiment": "Human liver microsome stability", "type": "in vitro ADME", "conditions": "human liver microsomes; read-out: HLM T1/2", "excerpt": "The more lipophilic analogs 4a and 4e also appear more prone to oxidative metabolism in the presence of human liver microsomes. This is perhaps unsurprising given the presence of methoxyphenyl (4a) and benzylic methylene (4e) functions, both potential sites of oxidative metabolism."}, "[10]": {"target": "T2, HIV RRE IIB Luciferase reporter with HIV Tat (1-48)-Rev 3-70 (Human immunodeficiency virus type 1 group M subtype B, UniProt P04608+P04618)", "T2 construct": "HIV Tat (1-48)-Rev 3-70 expression construct; expressed in transfected cells; host or cells: 293T, transient transfection", "T2 sequence (P04608 whole entry, looked up)": "as the sequence (P04608 whole entry, looked up, the tested form may be a part) above", "T2 sequence (P04618 whole entry, looked up)": "as the sequence (P04618 whole entry, looked up, the tested form may be a part) above", "experiment": "Tat-hybrid transient reporter assay in 293T cells, RRE IIB reporter", "type": "cell-based", "conditions": "100 nM compound; 293T transient transfection", "description": "(§5) Testing the specificity of the thienopyridine compounds using the Tat-hybrid reporter system.\n(§6) A 96 well plate was seeded with 10,000 293T cells. We transfected each well with 10 ng of the HIV TAR Luciferase reporter and 5 ng of the HIV Tat 1-72 expression construct or 10 ng of the HIV RRE IIB Luciferase reporter and 5 ng of the HIV Tat (1-48)-Rev 3-70 expression construct, and with 2 ng of a CMV Renilla luciferase control. Compound 4a was added to a final concentration of 3.16, 10, 31.6, and 100 nM. Each condition was performed in quadruplet. Note, it was necessary to use transient transfection assays rather than stable cell lines in order to compare the two reporter systems, although the level of inhibition conferred by the compounds in the transient assays was lower than in the cell lines. The cells were incubated for 48 hours and dual luciferase assays were performed according to the manufacturers protocol (Promega). Reporter activity was normalized against the Renilla control."}, "[11]": {"target": "T3, HIV TAR Luciferase reporter with HIV Tat 1-72 (Human immunodeficiency virus type 1 group M subtype B, UniProt P04608)", "T3 construct": "5 ng of the HIV Tat 1-72 expression construct; expressed in transfected cells; host or cells: 293T, transient transfection", "T3 sequence (P04608 1-72)": "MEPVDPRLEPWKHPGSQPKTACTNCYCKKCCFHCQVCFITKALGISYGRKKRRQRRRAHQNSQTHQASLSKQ", "experiment": "Tat-hybrid transient reporter assay in 293T cells, TAR reporter", "type": "cell-based", "conditions": "100 nM compound; 293T transient transfection", "description": "as §5, §6"}}, "note": "Read-outs that look alike come from different tables or passages of the source. Where a SMILES comes first, the peptide text is derived from it. The star is where a group is joined. Cbz = O=C(OCc1ccccc1)*"}
{"smiles": "CN(C)c1ccnc2sc(C(N)=O)c(N)c12", "note": "[drawing 241]", "values": [{"measurement": "EC50 at 48 h", "setting": "[1]", "result": "> 40", "unit": "µM"}, {"measurement": "Tat hybrid cell viability at 50,000 nM", "setting": "[2]", "result": "Y (Y = 30-60%)"}, {"measurement": "IC50", "setting": "[3]; Table 6, read-out: U1 IC50", "result": "> 0.5", "unit": "µM"}, {"measurement": "CC50", "setting": "U1 cells", "result": "> 40", "unit": "µM"}]}
{"smiles": "Nc1ccc2cc3ccc(N)cc3nc2c1", "note": "[3,6 diaminoacridine, reference compound]", "values": [{"measurement": "activity in the Tat-hybrid reporter assay", "setting": "Rev-RRE IIB interaction [4]", "result": "inhibits expression of the reporter"}, {"measurement": "inhibition of the Rev-RRE interaction by EMSA", "setting": "Rev-RRE IIB interaction [5]", "result": "inhibition of Rev-RRE formation is observed"}]}
{"smiles": "Cc1cn([C@H]2C[C@H](N=[N+]=[N-])[C@@H](CO)O2)c(=O)[nH]c1=O", "note": "[AZT]", "values": [{"measurement": "CC50", "setting": "PBMC", "result": "< 40", "unit": "µM"}]}
{"smiles": "CC(C)C[C@@H](C=O)NC(=O)[C@H](CC(C)C)NC(=O)[C@H](CC(C)C)NC(=O)OCc1ccccc1", "note": "[MG132] (Cbz-Leu-Leu-Leu-aldehyde)", "values": [{"measurement": "effect on Vpu-dependent degradation of Rev", "setting": "[6]", "result": "blocks Vpu-dependent degradation of Rev"}]}
{"smiles": "COc1ccc(-c2cncc3sc(C(N)=O)cc23)cc1", "note": "[Compound 4a, 4-(4-methoxyphenyl)thieno[2,3-c]pyridine-2-carboxamide]", "values": [{"measurement": "activity in the Tat-hybrid reporter assay", "setting": "Rev-RRE IIB interaction [4]", "result": "low-nM potency"}, {"measurement": "potency in the U1 assay", "setting": "[3]", "result": "low-nM potency"}, {"measurement": "IC50", "setting": "[3]; Human immunodeficiency virus 1, Table 2, read-out: U1 cell IC50", "result": "< 0.1", "unit": "µM"}, {"measurement": "IC50", "setting": "HIV-1 isolate NL4-3", "result": "< 0.1", "unit": "µM"}, {"measurement": "EC50", "setting": "[7]", "result": "0.1 to 0.5", "unit": "µM"}, {"measurement": "solubility", "setting": "[8]", "result": 0.44, "unit": "µM"}, {"measurement": "Papp", "setting": "Caco-2 permeability", "result": 594, "unit": "nm/s"}, {"measurement": "half-life", "setting": "[9]", "result": 8, "unit": "min"}, {"measurement": "expression of the HIV RRE IIb reporter", "setting": "[10]", "result": "significantly inhibited"}, {"measurement": "expression of the HIV TAR reporter", "setting": "[11]", "result": "not similarly inhibited"}]}
